Results as given in ChEMBL document CHEMBL6087479, “Discovery of a Potent and Selective GSPT1 Molecular Glue Degrader for the Treatment of Castration-Resistant Prostate Cancer” (J Med Chem, 2025).
Activity calls are given as the source filed them. The calls are words filed in the database; no cut-off is given here.

Legend:
[1] = target: Protein cereblon/Bromodomain-containing protein 4 (Homo sapiens) (UniProt O60885+Q96SW2); test: Molecular glue degradation activity at CRBN/BRD4 in human 22Rv1 cells at 12 to 1000 nM incubated for 6 hrs by Immunoblotting analysis; assay type: cell-based; settings: dose 12-1000 nM
CWR22R [2] = test: Downregulation of GSPT1 protein level in human 22Rv1 cells at 500 nM incubated for 6 hrs by mass spectrometry-based label-free quantitative proteomics analysis; assay type: functional, cell-based
CWR22R [3] = test: Downregulation of BRD2 protein level in human 22Rv1 cells at 500 nM incubated for 6 hrs by mass spectrometry-based label-free quantitative proteomics analysis; assay type: functional, cell-based
LNCaP = test: cells; settings: Homo sapiens, 96 h
Description: Antiproliferative activity against human LNCaP cells assessed as inhibition of cell proliferation incubated for 96 hrs by CellTiter-Glo assay

LNCaP C4-2B = test: cells; settings: Homo sapiens, 96 h
Description: Antiproliferative activity against human LNCaP C4-2B cells assessed as inhibition of cell proliferation incubated for 96 hrs by CellTiter-Glo assay

CWR22R [4] = test: cells; settings: Homo sapiens, 22Rv1, 96 h
Description: Antiproliferative activity against human 22Rv1 cells assessed as inhibition of cell proliferation incubated for 96 hrs by CellTiter-Glo assay

[5] = target: Protein cereblon/Eukaryotic peptide chain release factor GTP-binding subunit ERF3A (Homo sapiens) (UniProt Q96SW2+P15170); test: Protac activity at CRBN/GSPT1 in human 22Rv1 cells assessed as GSPT1 degradation at 12 to 1000 nM incubated for 6 hrs by Western blotting analysis; assay type: cell-based; settings: dose 12-1000 nM
CWR22R [6] = test: Antiproliferative activity against human 22Rv1 cells assessed as inhibition of cell proliferation by CellTiter-Glo assay
[7] = Binding affinity to […]/DDB1/N-terminal H6-Avi-tagged CRBN TBD (unknown origin) expressed in BL21 (DE3) cells assessed as dissociation constant by BLI assay; design: species or system Homo sapiens
CWR22R [8] = test: Downregulation of AR-FL protein level in human 22Rv1 cells at 12 to 1000 nM incubated for 12 hrs by Immunoblotting analysis; assay type: functional, cell-based; settings: dose 12-1000 nM
CWR22R [9] = test: Downregulation of E2F3 expression in human 22Rv1 cells incubated for 12 hrs by qRT-PCR analysis; assay type: functional, cell-based
CWR22R [10] = test: Downregulation of HSP90B1 expression in human 22Rv1 cells incubated for 12 hrs by qRT-PCR analysis; assay type: functional, cell-based
CWR22R [11] = test: Downregulation of BCL-XL level in human 22Rv1 cells at 12 to 1000 nM incubated for 12 hrs by Immunoblotting analysis; assay type: functional, cell-based; settings: dose 12-1000 nM
CWR22R [12] = test: Downregulation of MCL-1 level in human 22Rv1 cells at 12 to 1000 nM incubated for 12 hrs by Immunoblotting analysis; assay type: functional, cell-based; settings: dose 12-1000 nM
CWR22R [13] = test: Downregulation of PSA mRNA level in human 22Rv1 cells at 500 nM incubated for 12 hrs by qRT-PCR analysis; assay type: functional, cell-based
CWR22R [14] = test: Inhibition of colony formation in human 22Rv1 cells at 6.25 to 25 nM incubated for 14 days by crystal violet staining based assay; assay type: functional, cell-based; settings: dose 6.25-25 nM, time 14.0 day
CWR22R [15] = test: Downregulation of GSPT1 mRNA level in human 22Rv1 cells at 100 to 300 nM incubated for 12 hrs by qRT-PCR analysis; assay type: functional, cell-based; settings: dose 100-300 nM
CWR22R [16] = test: Downregulation of BCL2 expression in human 22Rv1 cells incubated for 12 hrs by qRT-PCR analysis; assay type: functional, cell-based
CWR22R [17] = test: Downregulation of CDK2 expression in human 22Rv1 cells incubated for 12 hrs by qRT-PCR analysis; assay type: functional, cell-based
[18] = target: Bromodomain-containing protein 4 (Homo sapiens, UniProt O60885); test: Binding affinity to BRD4 BD1 (unknown origin) assessed as dissociation constant by BLI assay
CWR22R [19] = test: Antitumor activity against human 22Rv1 cells xenografted in NOD-SCID mouse assessed as tumor growth inhibition at 10 mg/kg, ip administered once daily for 21 days relative to control; assay type: functional; settings: 22Rv1, 504 h, time 21 day, read-out: TGI
CWR22R [20] = test: Downregulation of AR-FL mRNA level in human 22Rv1 cells at 500 nM incubated for 12 hrs by qRT-PCR analysis; assay type: functional, cell-based
CWR22R [21] = test: Antiproliferative activity against siCRBN knockdown human 22Rv1 cells assessed as inhibition of cell growth by Cell-titer Glo luminescent assay; assay type: functional, cell-based
CWR22R [22] = test: Downregulation of TMPRSS2 expression in human 22Rv1 cells incubated for 12 hrs by qRT-PCR analysis; assay type: functional, cell-based
CWR22R [23] = test: Downregulation of c-MYC protein level in human 22Rv1 cells at 12 to 1000 nM incubated for 12 hrs by Immunoblotting analysis; assay type: functional, cell-based; settings: dose 12-1000 nM
CWR22R [24] = test: Antitumor activity against human 22Rv1 cells xenografted in NOD-SCID mouse assessed as tumor growth inhibition at 20 mg/kg, ip administered once daily for 21 days relative to control; assay type: functional; settings: 22Rv1, 504 h, time 21 day, read-out: TGI
[25] = target: Eukaryotic peptide chain release factor GTP-binding subunit ERF3A (Homo sapiens) (UniProt P15170); settings: dose 200.0 µM, time 45.0 min
CWR22R [26] = test: Downregulation of BRD4 protein level in human 22Rv1 cells at 500 nM incubated for 6 hrs by mass spectrometry-based label-free quantitative proteomics analysis; assay type: functional, cell-based
CWR22R [27] = test: Reduction of GSPT1 in siCRBN transfected human 22Rv1 cells at 500 nM incubated for 6 hrs by Western blotting analysis; assay type: functional, cell-based
CWR22R [28] = test: Downregulation of BCL2 level in human 22Rv1 cells at 12 to 1000 nM incubated for 12 hrs by Immunoblotting analysis; assay type: functional, cell-based; settings: dose 12-1000 nM
CWR22R [29] = test: Downregulation of c-MYC mRNA level in human 22Rv1 cells at 500 nM incubated for 12 hrs by qRT-PCR analysis; assay type: functional, cell-based
CWR22R [30] = test: Downregulation of PSA protein level in human 22Rv1 cells at 12 to 1000 nM incubated for 12 hrs by Immunoblotting analysis; assay type: functional, cell-based; settings: dose 12-1000 nM
[31] = target: Eukaryotic peptide chain release factor GTP-binding subunit ERF3A (Homo sapiens) (UniProt P15170); test: Binding affinity to GSPT1 (unknown origin) by BLI assay
CWR22R [32] = test: Downregulation of EGFR expression in human 22Rv1 cells incubated for 12 hrs by qRT-PCR analysis; assay type: functional, cell-based
CWR22R [33] = test: Downregulation of GSPT1 protein level in human 22Rv1 cells incubated for 6 hrs by Immunoblotting analysis; assay type: functional, cell-based; settings: dose 12-1000 nM
CWR22R [34] = test: Downregulation of AR-V7 mRNA level in human 22Rv1 cells at 500 nM incubated for 12 hrs by qRT-PCR analysis; assay type: functional, cell-based
[35] = Toxicity in wild-type NOD-SCID mouse assessed as tolerability administered intraperitoneally once daily for 21 days; settings: in vivo, ip, 504 h, time 21 day
CWR22R [36] = test: Downregulation of GSPT1 protein level in human 22Rv1 cells at 300 nM by Immunoblotting analysis; assay type: functional, cell-based; settings: time 1-6 hrs
[37] = Downregulation of GSPT1 protein level in human 22Rv1 cells at 12 to 1000 nM incubated for 6 hrs by Immunoblotting analysis; settings: 22Rv1, 6 h
CWR22R [38] = test: Downregulation of AR-V7 protein level in human 22Rv1 cells at 12 to 1000 nM incubated for 12 hrs by Immunoblotting analysis; assay type: functional, cell-based; settings: dose 12-1000 nM

Chain of Protein cereblon/Bromodomain-containing protein 4 (Homo sapiens) (Q96SW2 whole entry, looked up, other chains not shown): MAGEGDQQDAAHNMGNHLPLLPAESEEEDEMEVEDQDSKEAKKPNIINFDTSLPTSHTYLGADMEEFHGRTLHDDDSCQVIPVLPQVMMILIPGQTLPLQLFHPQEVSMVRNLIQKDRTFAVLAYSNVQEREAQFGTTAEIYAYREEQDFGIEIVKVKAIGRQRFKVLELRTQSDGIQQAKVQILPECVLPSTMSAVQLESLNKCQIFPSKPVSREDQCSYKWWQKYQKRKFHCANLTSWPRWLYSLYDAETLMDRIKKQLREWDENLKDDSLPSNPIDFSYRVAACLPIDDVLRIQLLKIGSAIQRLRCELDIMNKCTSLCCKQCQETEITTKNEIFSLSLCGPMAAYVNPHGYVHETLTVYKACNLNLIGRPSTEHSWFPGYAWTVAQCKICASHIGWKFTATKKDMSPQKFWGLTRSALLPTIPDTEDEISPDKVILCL
Chain of Protein cereblon/Eukaryotic peptide chain release factor GTP-binding subunit ERF3A (Homo sapiens) (P15170 whole entry, looked up): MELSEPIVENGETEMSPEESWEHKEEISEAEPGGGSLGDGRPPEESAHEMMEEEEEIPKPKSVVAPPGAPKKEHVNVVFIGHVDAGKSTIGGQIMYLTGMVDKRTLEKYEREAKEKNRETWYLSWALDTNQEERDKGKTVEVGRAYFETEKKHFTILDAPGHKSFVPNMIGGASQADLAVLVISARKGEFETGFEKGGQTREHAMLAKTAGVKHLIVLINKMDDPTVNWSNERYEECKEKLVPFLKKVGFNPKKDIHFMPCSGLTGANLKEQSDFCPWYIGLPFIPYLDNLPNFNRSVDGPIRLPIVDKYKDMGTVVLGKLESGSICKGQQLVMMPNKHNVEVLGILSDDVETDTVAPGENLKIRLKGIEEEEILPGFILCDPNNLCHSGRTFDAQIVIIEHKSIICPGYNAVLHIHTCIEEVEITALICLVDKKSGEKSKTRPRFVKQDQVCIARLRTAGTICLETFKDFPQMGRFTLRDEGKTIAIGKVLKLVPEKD
Chain of Protein cereblon/Eukaryotic peptide chain release factor GTP-binding subunit ERF3A (Homo sapiens) (Q96SW2 whole entry, looked up): as the sequence (Q96SW2 whole entry, looked up, other chains not shown) above
Chain of Eukaryotic peptide chain release factor GTP-binding subunit ERF3A (Homo sapiens) (P15170 whole entry): as the sequence (P15170 whole entry, looked up) above

Structure (SMILES): Cc1sc2c(c1C)C(c1ccc(Cl)cc1)=N[C@@H](CC(=O)NCCCCNC(=O)COc1cccc3c1C(=O)N(C1CCC(=O)NC1=O)C3=O)c1nnc(C)n1-2 (stereo partly specified)
- Activity [1]: Active
- Activity (CWR22R [2]): inactive
- Activity (CWR22R [3]): Active
- IC50 (LNCaP): 2250 nM
- IC50 (LNCaP C4-2B): 3110 nM
- IC50 (CWR22R [4]): 1750 nM

Structure (SMILES): Nc1cccc2c1C(=O)N(C1CCC(=O)NC1=O)C2=O (stereo unspecified) [POMALIDOMIDE]
- IC50 (LNCaP): > 10000 nM
- IC50 (LNCaP C4-2B): > 10000 nM
- IC50 (CWR22R [4]): > 10000 nM

Structure (SMILES): COc1ccc(Br)cc1S(=O)(=O)Nc1cc2c(C)noc2cc1OCC(=O)NCCCCCCNC(=O)COc1cccc2c1C(=O)N(C1CCC(=O)NC1=O)C2=O (stereo unspecified)
- IC50 (LNCaP): > 10000 nM
- IC50 (LNCaP C4-2B): > 10000 nM
- IC50 (CWR22R [4]): > 10000 nM

Structure (SMILES): COc1ccc(Br)cc1S(=O)(=O)Nc1cc2c(C)noc2cc1OCC(=O)NCCNc1ccc2c(c1)C(=O)N(C1CCC(=O)NC1=O)C2=O (stereo unspecified)
- IC50 (LNCaP): > 10000 nM
- IC50 (LNCaP C4-2B): > 10000 nM
- IC50 (CWR22R [4]): > 10000 nM

Structure (SMILES): COc1ccc(Br)cc1S(=O)(=O)Nc1cc2c(C)noc2cc1OCC(=O)NCCNC(=O)COc1cccc2c1C(=O)N(C1CCC(=O)NC1=O)C2=O (stereo unspecified)
- IC50 (LNCaP): > 10000 nM
- IC50 (LNCaP C4-2B): > 10000 nM
- IC50 (CWR22R [4]): > 10000 nM

Structure (SMILES): COc1ccc(Br)cc1S(=O)(=O)Nc1cc2c(C)noc2cc1OCC(=O)NCCCNc1ccc2c(c1)C(=O)N(C1CCC(=O)NC1=O)C2=O (stereo unspecified)
- IC50 (LNCaP): > 10000 nM
- IC50 (LNCaP C4-2B): > 10000 nM
- IC50 (CWR22R [4]): 1380 nM

Structure (SMILES): COc1ccc(Br)cc1S(=O)(=O)Nc1cc2c(C)noc2cc1OCC(=O)NCCCNc1cccc2c1C(=O)N(C1CCC(=O)NC1=O)C2=O (stereo unspecified)
- Activity [5]: Active; Moderate Effect Of Degradation Observed
- Activity [1]: inactive
- IC50 (LNCaP): 100 nM
- IC50 (LNCaP C4-2B): 624 nM
- IC50 (CWR22R [4]): 26 nM

Structure (SMILES): COc1ccc(Br)cc1S(=O)(=O)Nc1cc2c(C)noc2cc1OCC(=O)NCCCCCNc1cccc2c1C(=O)N(C1CCC(=O)NC1=O)C2=O (stereo unspecified)
- IC50 (CWR22R [6]): 7 nM
- Kd [7]: 930 nM
- Activity [5]: Active
- Activity (CWR22R [8]): Active
- Activity (CWR22R [9]): Active
- Activity (CWR22R [10]): Active
- Activity [1]: inactive
- Activity (CWR22R [11]): Active
- Activity (CWR22R [12]): Active
- Activity (CWR22R [13]): Active
- inhibition (CWR22R [14]): Active
- Activity (CWR22R [2]): Active
- Activity (CWR22R [15]): inactive
- Activity (CWR22R [16]): Active
- Activity (CWR22R [17]): Active
- Kd [18]: 38000 nM
- inhibition in vivo at 10 mg/kg (CWR22R [19]): 44%
- Activity (CWR22R [20]): Active
- Activity (CWR22R [21]): inactive
- Activity (CWR22R [22]): Active
- Activity (CWR22R [3]): inactive
- Activity (CWR22R [23]): Active
- inhibition in vivo at 20 mg/kg (CWR22R [24]): 55%
- IC50 (LNCaP): 34 nM
- deltaTm [25]: inactive
- Activity (CWR22R [26]): inactive
- IC50 (LNCaP C4-2B): 374 nM
- Activity (CWR22R [27]): inactive
- Activity (CWR22R [28]): Active
- IC50 (CWR22R [4]): 7 nM
- Activity (CWR22R [29]): Active
- Activity (CWR22R [30]): Active
- Activity [31]: inactive
- Activity (CWR22R [32]): Active
- Activity (CWR22R [33]): Dose-dependent-effect
- Activity (CWR22R [34]): Active
- Activity [35]: Non-toxic
- Activity (CWR22R [36]): Time-dependent-effect
- DC50 [37]: 19 nM
- Activity (CWR22R [38]): Active

Structure (SMILES): COc1ccc(Br)cc1S(=O)(=O)Nc1cc2c(C)noc2cc1OCC(=O)NCCCCNc1cccc2c1C(=O)N(C1CCC(=O)NC1=O)C2=O (stereo unspecified)
- Activity [5]: Active; Moderate Effect Of Degradation Observed
- Activity [1]: inactive
- IC50 (LNCaP): 112 nM
- IC50 (LNCaP C4-2B): 1430 nM
- IC50 (CWR22R [4]): 62 nM
